≈ marks a conversion by molar mass, not a printed value.
Columns and labels:
Assay in all cases: ≥ marks a high value that may be exact or a test limit, other limits are often not marked, values filed in µg/mL are converted to µM
[1] = test system: Lacticaseibacillus rhamnosus 7469
[2] = test system: Staphylococcus epidermidis ATCC 12228
[3] = test system: Staphylococcus aureus ATCC 25923
[4] = test system: Candida parapsilosis CGMCC 2.3989
[5] = test system: Candida albicans CGMCC 2.2086
[6] = test system: Candida tropicalis CGMCC 2.1975
[7] = test system: Staphylococcus aureus ATCC 29213
[8] = test system: Lactiplantibacillus plantarum 8014
[9] = test system: Streptococcus pyogenes DMST 17020
Escherichia coli K-12 = test system: Escherichia coli K-12
[10] = test system: Staphylococcus aureus JE2
Bibersteinia trehalosi = test system: Bibersteinia trehalosi
[11] = test system: Mannheimia haemolytica Serovar 1
Pasteurella multocida = test system: Pasteurella multocida
[12] = test system: Salmonella enterica subsp. arizonae
[13] = test system: Mannheimia haemolytica Serovar 6
[14] = test system: Pseudomonas aeruginosa PAO1
Staphylococcus aureus = test system: Staphylococcus aureus
[15] = test system: Corynebacterium pseudotuberculosis ATCC 19410
Klebsiella pneumoniae = test system: Klebsiella pneumoniae
[16] = test system: Escherichia coli JW2778 ΔygdD
Escherichia coli JW0013 = test system: Escherichia coli JW0013
[17] = test system: Escherichia coli JW0368 ΔsbmA
[18] = test system: Salmonella typhimurium SL1344
[19] = test system: Salmonella enterica subsp. enterica serovar Enteritidis MH91989
Escherichia coli JJ2489 = test system: Escherichia coli JJ2489
Escherichia coli MC1041 = test system: Escherichia coli MC1041
Escherichia coli BW25113 = test system: Escherichia coli BW25113
Escherichia coli J2210 = test system: Escherichia coli J2210
[20] = test system: Staphylococcus aureus ATCC 12600
Staphylococcus aureus MR = test system: Staphylococcus aureus MR
[21] = test system: Escherichia coli ATCC 25922
[22] = test system: Escherichia coli KpC+001812446
Escherichia coli BL21 = test system: Escherichia coli BL21
[23] = test system: Pseudomonas aeruginosa PA14
[24] = test system: Klebsiella pneumoniae KpC+001825971
Enterobacter cloacae = test system: Enterobacter cloacae
[25] = test system: Klebsiella pneumoniae ATCC 13883
Acinetobacter baumannii = test system: Acinetobacter baumannii

## CC[C@H](C)[C@H](N)C(=O)N[C@@H](Cc1cnc[nH]1)C(=O)N[C@@H](Cc1cnc[nH]1)C(=O)N[C@H](C(=O)N[C@@H](Cc1cnc[nH]1)C(=O)N[C@@H](Cc1cnc[nH]1)C(=O)N[C@@H](Cc1cnc[nH]1)C(=O)N[C@H](C(=O)N[C@@H](Cc1cnc[nH]1)C(=O)N[C@@H](Cc1cnc[nH]1)C(=O)N[C@H](C(=O)N[C@@H](Cc1cnc[nH]1)C(=O)N[C@@H](Cc1cnc[nH]1)C(=O)N[C@@H](Cc1cnc[nH]1)C(=O)N[C@H](C(=O)N[C@@H](Cc1cnc[nH]1)C(=O)N[C@@H](Cc1cnc[nH]1)C(=O)N[C@H](C(=O)N[C@@H](Cc1cnc[nH]1)C(=O)N[C@@H](Cc1cnc[nH]1)C(=O)N[C@@H](Cc1cnc[nH]1)C(N)=O)[C@@H](C)CC)[C@@H](C)CC)[C@@H](C)CC)[C@@H](C)CC)[C@@H](C)CC [IHHIHHHIHHIHHHIHHIHHH]
[1]
  MIC: ≥ 64 µM
[2]
  MIC: > 64 µM
[3]
  MIC: > 64 µM
[4]
  MIC: 1 µM (≈ 2.75 µg/mL)
[5]
  MIC: 1 µM (≈ 2.75 µg/mL)
[6]
  MIC: 0.5 µM (≈ 1.38 µg/mL)
[7]
  MIC: > 64 µM
[8]
  MIC: ≥ 64 µM

## CSCC[C@H](NC(=O)[C@H](CS)NC(=O)[C@H](CC(C)C)NC(=O)[C@@H](NC(=O)[C@@H](N)Cc1cnc[nH]1)[C@@H](C)O)C(=O)NCC(=O)N[C@@H](CCCCN)C(=O)N[C@@H](C)C(=O)N[C@H](C(=O)N[C@@H](Cc1ccc(O)cc1)C(=O)O)[C@@H](C)O [HTLCMGKATY]
[2]
  MIC: 250 µM (≈ 281 µg/mL)
[9]
  MIC: ≥ 250 µM

## CC[C@H](C)[C@H](NC(=O)[C@@H](NC(=O)[C@H](CO)NC(=O)[C@H](C)NC(=O)[C@@H](NC(=O)[C@H](CCCCN)NC(=O)[C@H](CCCCN)NC(=O)[C@@H](NC(=O)[C@@H](NC(=O)[C@H](CC(=O)O)NC(=O)[C@H](Cc1ccccc1)NC(=O)[C@H](CC(C)C)NC(=O)CNC(C)=O)C(C)C)[C@@H](C)CC)C(C)C)C(C)C)C(=O)NCC(=O)NCC(=O)N[C@@H](CC(C)C)C(=O)O [GLFDVIKKVASVIGGL]
Escherichia coli K-12
  MIC: ≥ 158 µM
[10]
  MIC: ≥ 158 µM

## CC[C@H](C)[C@H](NC(=O)[C@H](CCCN=C(N)N)NC(=O)[C@@H](NC(=O)[C@@H](NC(=O)[C@H](CCCN=C(N)N)NC(=O)[C@H](CC(C)C)NC(=O)[C@@H](NC(=O)[C@@H](NC(=O)[C@@H]1CCCN1C(=O)CNC(=O)[C@H](Cc1ccc(O)cc1)NC(=O)[C@H](CCCCN)NC(=O)[C@H](CCCCN)NC(=O)[C@@H](NC(=O)[C@@H](NC(=O)[C@H](Cc1cnc[nH]1)NC(=O)[C@@H](NC(=O)[C@@H](NC(=O)[C@H](CCCCN)NC(=O)[C@H](CCCN=C(N)N)NC(=O)[C@@H](NC(=O)[C@@H](NC(=O)[C@H](CCCN=C(N)N)NC(=O)[C@H](CCCN=C(N)N)NC(=O)[C@H](CC(C)C)NC(=O)[C@H](CC(N)=O)NC(=O)[C@@H](N)CCCCN)[C@@H](C)CC)[C@@H](C)CC)[C@@H](C)CC)[C@@H](C)CC)[C@@H](C)CC)[C@@H](C)CC)[C@@H](C)O)[C@@H](C)CC)[C@@H](C)CC)[C@@H](C)CC)C(=O)N[C@H](C(=O)NCC(N)=O)[C@@H](C)CC [KNLRRIIRKIIHIIKKYGPTILRIIRIIG]
Bibersteinia trehalosi
  MIC: 2.85 µM (≈ 10 µg/mL)
[11]
  MIC: 1.08 µM (≈ 3.8 µg/mL)
Pasteurella multocida
  MIC: 2.37 µM (≈ 8.3 µg/mL)
[12]
  MIC: 1.91 µM (≈ 6.7 µg/mL)
[13]
  MIC: 0.598 µM (≈ 2.1 µg/mL)
[14]
  MIC: 1.2 µM (≈ 4.2 µg/mL)
Staphylococcus aureus
  MIC: 1.42 µM (≈ 5 µg/mL)
[15]
  MIC: 5.7 µM (≈ 20 µg/mL)
Klebsiella pneumoniae
  MIC: 0.37 µM (≈ 1.3 µg/mL)

## CC[C@H](C)[C@H](NC(=O)[C@H](CCCN=C(N)N)NC(=O)[C@@H](N)CCCN=C(N)N)C(=O)N[C@@H](CCCN=C(N)N)C(=O)N[C@@H](CCCCN)C(=O)N[C@@H](CCCN=C(N)N)C(=O)N1CCC[C@H]1C(=O)N1CCC[C@H]1C(=O)N[C@@H](CCCN=C(N)N)C(=O)N[C@@H](CC(C)C)C(=O)N1CCC[C@H]1C(=O)N[C@@H](CCCN=C(N)N)C(=O)N1CCC[C@H]1C(=O)N[C@@H](CCCN=C(N)N)C(=O)N1CCC[C@H]1C(=O)N[C@@H](CCCCN)C(=O)O [RRIRKRPPRLPRPRPK]
[16]
  MIC: 0.12 µM (≈ 0.25 µg/mL)
Escherichia coli JW0013
  MIC: 0.06 µM (≈ 0.125 µg/mL)
[17]
  MIC: 0.06 µM (≈ 0.125 µg/mL)
[18]
  MIC: 0.12 µM (≈ 0.25 µg/mL)
[19]
  MIC: 0.12 µM (≈ 0.25 µg/mL)
Escherichia coli JJ2489
  MIC: 0.12 µM (≈ 0.25 µg/mL)
Escherichia coli MC1041
  MIC: 0.06 µM (≈ 0.125 µg/mL)
Escherichia coli BW25113
  MIC: 0.078 µM (≈ 0.162 µg/mL)
Escherichia coli J2210
  MIC: 0.157 µM (≈ 0.326 µg/mL)

## CC[C@H](C)[C@H](NC(=O)[C@H](CCCCN)NC(=O)[C@H](CCCCN)NC(=O)[C@@H](NC(=O)[C@H](CCCCN)NC(=O)[C@H](C)NC(=O)[C@H](C)NC(=O)[C@H](CC(C)C)NC(=O)[C@H](CCCN=C(N)N)NC(=O)[C@H](CCCCN)NC(=O)[C@H](CC(C)C)NC(=O)[C@@H](NC(=O)[C@@H](N)CCCCN)[C@@H](C)CC)[C@@H](C)CC)C(=O)N[C@@H](CC(C)C)C(N)=O [KILKRLAAKIKKIL]
[20]
  MIC: 4 µM (≈ 6.54 µg/mL)
Staphylococcus aureus MR
  MIC: ≥ 32 µM
[21]
  MIC: 4 µM (≈ 6.54 µg/mL)
[22]
  MIC: 8 µM (≈ 13.1 µg/mL)
[14]
  MIC: 4 µM (≈ 6.54 µg/mL)
[3]
  MIC: > 32 µM
Escherichia coli BL21
  MIC: 2 µM (≈ 3.27 µg/mL)
[23]
  MIC: 4 µM (≈ 6.54 µg/mL)
[24]
  MIC: ≥ 32 µM
Enterobacter cloacae
  MIC: ≥ 32 µM
[25]
  MIC: 8 µM (≈ 13.1 µg/mL)
Acinetobacter baumannii
  MIC: ≥ 32 µM

## CSCC[C@H](NC(=O)[C@H](CS)NC(=O)[C@H](CC(C)C)NC(=O)[C@@H](NC(=O)[C@@H](N)Cc1cnc[nH]1)[C@@H](C)O)C(=O)N[C@@H](CC(=O)O)C(=O)NCC(=O)NCC(=O)N[C@@H](C)C(=O)N[C@H](C(=O)N[C@@H](Cc1ccc(O)cc1)C(=O)O)[C@@H](C)O [HTLCMDGGATY]
[9]
  MIC: ≥ 50 µM

Reference: DBAASP
